This passage reports IC50 results from patent US20100056524A1, “Compound” (priority 2008, published 2010).

Counter-ions that a name gives are not always drawn. Where only a bound is given, the exact number is not on record here.

The target in the first assay is T1, TBK1 (Homo sapiens, UniProt Q9UHD2).
T1 construct: All protein kinases were of human origin and encoded full length proteins, unless indicated otherwise; His6; made in house; host or cells: insect Sf21 cells
T1 sequence (Q9UHD2 1-729): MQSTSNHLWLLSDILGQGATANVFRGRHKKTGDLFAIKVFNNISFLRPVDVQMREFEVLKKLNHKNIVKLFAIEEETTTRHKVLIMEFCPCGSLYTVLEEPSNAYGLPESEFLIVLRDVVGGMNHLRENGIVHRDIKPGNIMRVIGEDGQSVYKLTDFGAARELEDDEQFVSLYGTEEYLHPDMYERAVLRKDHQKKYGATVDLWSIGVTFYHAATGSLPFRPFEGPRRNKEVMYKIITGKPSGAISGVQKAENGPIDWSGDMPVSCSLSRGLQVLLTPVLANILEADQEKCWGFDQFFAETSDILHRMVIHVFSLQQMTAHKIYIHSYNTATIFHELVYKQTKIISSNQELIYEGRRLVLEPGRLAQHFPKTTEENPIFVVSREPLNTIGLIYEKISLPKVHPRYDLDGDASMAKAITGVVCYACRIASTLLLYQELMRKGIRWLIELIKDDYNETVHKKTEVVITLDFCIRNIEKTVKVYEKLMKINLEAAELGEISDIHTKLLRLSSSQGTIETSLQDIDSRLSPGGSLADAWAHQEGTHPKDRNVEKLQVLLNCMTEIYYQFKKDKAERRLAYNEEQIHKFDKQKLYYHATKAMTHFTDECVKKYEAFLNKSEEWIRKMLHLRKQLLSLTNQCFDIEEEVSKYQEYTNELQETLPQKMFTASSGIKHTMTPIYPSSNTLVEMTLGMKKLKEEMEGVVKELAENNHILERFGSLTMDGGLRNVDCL
Briefly: TBK1 protein kinase assay ([γ-33P]ATP, P81 filterplates). The assay is classed as biochemical. To be noted: 50 μM ATP; read-out: Potency (TBK1 IC50 potency score). The method in brief: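 Human TBK1 assayed for 30 min with peptide substrate (300 μM), 50 μM [γ-33P]ATP and 10 mM magnesium acetate in 50 mM Tris/HCl pH 7.5, 0.1 mM EGTA, 0.1% 2-mercaptoethanol. Stopped with orthophosphoric acid and counted on P81 filters. IC50 from 10 compound concentrations.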
In the case of `O=C(NCCCNc1nc(Nc2ccc(C3CC3)nc2)ncc1C1CC1)C1CCC1` [Example 208, Cyclobutanecarboxylic acid {3-[5-cyclopropyl-2-(6-cyclopropyl-pyridin-3-ylamino)-pyrimidin-4-ylamino]-propyl}-amide], the IC50 was under 100 nM.

Consider `O=C(NCCCNc1nc(Nc2ccc3[nH]nnc3c2)ncc1C1CC1)C1CCC1` [Example 214, Cyclobutanecarboxylicacid{3-[2-(1H-benzotriazol-5-ylamino)-5-cyclopropyl-pyrimidin-4-ylamino]-propyl}-amide], for which the concentration for half-maximal inhibition (IC50) is under 100 nM.

For `O=C(NCCCNc1nc(Nc2ccc(N3CCN(C4CC4)CC3)nc2)ncc1C1CC1)C1CCC1` [Example 206, Cyclobutanecarboxylic acid (3-{5-cyclopropyl-2-[6-(4-cyclopropyl-piperazin-1-yl)-pyridin-3-ylamino]-pyrimidin-4-ylamino}-propyl)-amide], the IC50 is under 100 nM.

`O=C(NCCCNc1nc(Nc2ccc(OCCN3CCOCC3)nc2)ncc1C1CC1)C1CCC1` [Example 154, Cyclobutanecarboxylic acid (3-{5-cyclopropyl-2-[6-(2-morpholin-4-yl-ethoxy)-pyridin-3-ylamino]-pyrimidin-4-ylamino}-propyl)-amide]: the IC50 is under 100 nM.

For the molecule `CN1CCN(C(=O)c2cccc(Nc3ncc(C4CC4)c(NCCCNC(=O)c4cccs4)n3)c2)CC1` [Example 45, Thiophene-2-carboxylic acid (3-{5-cyclopropyl-2-[3-(4-methyl-piperazine-1-carbonyl)-phenylamino]-pyrimidin-4-ylamino}-propyl)-amide], the IC50 is 100 to 1000 nM.

In the case of `O=C(NCCCNc1nc(Nc2cccc(-c3ccncc3)c2)ncc1C1CC1)C1CCC1` [Example 121, Cyclobutanecarboxylic acid {3-[5-cyclopropyl-2-(3-pyridin-4-yl-phenylamino)-pyrimidin-4-ylamino]-propyl}-amide], the IC50 was under 100 nM.

`O=C(NCCCNc1nc(Nc2ccc3cnccc3c2)ncc1C1CC1)c1cccs1` [Example 53, Thiophene-2-carboxylic acid {3-[5-cyclopropyl-2-(isoquinolin-6-ylamino)-pyrimidin-4-ylamino]-propyl}-amide]: the IC50 was 1000 to 10000 nM.

`O=C(NCCCNc1nc(Nc2ccc3nn(CC4CC4)cc3c2)ncc1C1CC1)C1CCC1` [Example 213, Cyclobutanecarboxylicacid{3-[5-cyclopropyl-2-(2-cyclopropylmethyl-2H-indazol-5-ylamino)-pyrimidin-4-ylamino]-propyl}-amide]: the IC50 was under 100 nM.

With `CC1(C)CCN(CCCNc2nc(Nc3cccc(F)c3)ncc2C2CC2)C1=O` [Example 113, 1-{3-[5-Cyclopropyl-2-(3-fluoro-phenylamino)-pyrimidin-4-ylamino]-propyl}-3,3-dimethyl-pyrrolidin-2-one], the 50% inhibitory concentration (IC50) was in the range of 100 to 1000 nM.

As to `Cc1ccccc1Nc1ncc(C2CC2)c(NCCCNC(=O)c2cccs2)n1` [Example 59, Thiophene-2-carboxylic acid [3-(5-cyclopropyl-2-o-tolylamino-pyrimidin-4-ylamino)-propyl]-amide], the IC50 was in the range of 1000 to 10000 nM.

For the molecule `O=C1NCc2ccc(Nc3ncc(C4CC4)c(NCCCNC(=O)C4CCC4)n3)cc21` [Example 88, Cyclobutanecarboxylic acid {3-[5-cyclopropyl-2-(3-oxo-2,3-dihydro-1H-isoindol-5-ylamino)-pyrimidin-4-ylamino]-propyl}-amide hydrochloride salt], the IC50 is under 100 nM.

Take `O=C(NCCCNc1nc(Nc2cccc(C(=O)N3CCNCC3)c2)ncc1C1CC1)C1CCC1` [Example 142, Cyclobutanecarboxylic acid (3-{5-cyclopropyl-2-[3-(piperazine-1-carbonyl)-phenylamino]-pyrimidin-4-ylamino}-propyl)-amide. Hydrochloride]: the IC50 was under 100 nM.

Turning to `O=C(NCCCNc1nc(Nc2ccc3ncsc3c2)ncc1C1CC1)c1cccs1` [Example 37, Thiophene-2-carboxylic acid {3-[2-(benzothiazol-6-ylamino)-5-cyclopropyl-pyrimidin-4-ylamino]-propyl}-amide. Hydrochloride salt], the IC50 was under 100 nM.

Take `O=C(NCCCNc1nc(Nc2cccc(OCCN3CCOCC3)c2)ncc1C1CC1)C1CCC1` [Example 143, Cyclobutanecarboxylic acid (3-{5-cyclopropyl-2-[3-(2-morpholin-4-yl-ethoxy)-phenylamino]-pyrimidin-4-ylamino}-propyl)-amide]: the IC50 was under 100 nM.

Take `O=C1CCCN1CCCNc1nc(Nc2cccc(F)c2)ncc1C1CC1` [Example 38, 1-{3-[5-Cyclopropyl-2-(3-fluoro-phenylamino)-pyrimidin-4-ylamino]-propyl}-pyrrolidin-2-one]: the half-maximal inhibitory concentration (IC50) was in the range of 100 to 1000 nM.

In the case of `O=C(NCCCNc1nc(Nc2ccc(N3CCOCC3)nc2)ncc1C1CC1)C1CCC1` [Example 93, Cyclobutanecarboxylic acid {3-[5-cyclopropyl-2-(6-morpholin-4-yl-pyridin-3-ylamino)-pyrimidin-4-ylamino]-propyl}-amide], the IC50 was under 100 nM.

As to `O=c1c(C(F)(F)F)cccn1CCCNc1nc(Nc2cccc(F)c2)ncc1C1CC1` [Example 114, 1-{3-[5-Cyclopropyl-2-(3-fluoro-phenylamino)-pyrimidin-4-ylamino]-propyl}-3-trifluoromethyl-1H-pyridin-2-one], the IC50 lay within 100 to 1000 nM.

In the case of `O=C(NCCCNc1nc(Nc2cccc(NC(=O)N3CCCC3)c2)ncc1C1CC1)C1CCC1` [Example 144, Pyrrolidine-1-carboxylic acid (3-{4-[3-(cyclobutanecarbonyl-amino)-propylamino]-5-cyclopropyl-pyrimidin-2-ylamino}-phenyl)-amide], the IC50 was under 100 nM.

For the molecule `O=C(NCCCNc1nc(Nc2cccc(F)c2)ncc1C1CC1)c1ccsc1` [Example 17, Thiophene-3-carboxylic acid {3-[5-cyclopropyl-2-(3-fluoro-phenylamino)-pyrimidin-4-ylamino]-propyl}-amide], the IC50 is under 100 nM.

Consider `O=C(NCCCNc1nc(Nc2cccc(F)c2)ncc1C1CC1)C1CCCO1` (stereo not shown) [Example 15, Tetrahydro-furan-2-carboxylic acid {3-[5-cyclopropyl-2-(3-fluoro-phenylamino)-pyrimidin-4-ylamino]-propyl}-amide], for which the IC50 lay within 100 to 1000 nM.

As for `O=C(NCCCNc1nc(Nc2ccc3ncccc3c2)ncc1C1CC1)C1CCC1` [Example 191, Cyclobutanecarboxylic acid {3-[5-cyclopropyl-2-(quinolin-6-ylamino)-pyrimidin-4-ylamino]-propyl}-amide], the IC50 is under 100 nM.

`CC(=O)NCCCNc1nc(Nc2cccc(F)c2)ncc1C1CC1` [Example 1, N-{3-[5-Cyclopropyl-2-(3-fluoro-phenylamino)-pyrimidin-4-ylamino]-propyl}-acetamide trifluoroacetic acid salt]: the IC50 was in the range of 100 to 1000 nM.

As to `CN(C)[C@@H]1CCN(C(=O)c2cccc(Nc3ncc(C4CC4)c(NCCCNC(=O)C4CCC4)n3)c2)C1` [Example 126, Cyclobutanecarboxylic acid (3-{5-cyclopropyl-2-[3-((R)-3-dimethylamino-pyrrolidine-1-carbonyl)-phenylamino]-pyrimidin-4-ylamino}-propyl)-amide], the IC50 is under 100 nM.

As for `CN1CCN(CCCNc2nc(Nc3cccc(F)c3)ncc2C2CC2)C1=O` [Example 112, 1-{3-[5-Cyclopropyl-2-(3-fluoro-phenylamino)-pyrimidin-4-ylamino]-propyl}-3-methyl-imidazolidin-2-one], the IC50 lay in the range of 100 to 1000 nM.

Take `O=C(CC1CC1)NCCCNc1nc(Nc2cccc(F)c2)ncc1C1CC1` [Example 24, 2-Cyclopropyl-N-{3-[5-cyclopropyl-2-(3-fluoro-phenylamino)-pyrimidin-4-ylamino]-propyl}-acetamide]: the IC50 is under 100 nM.

Regarding `O=C(NCCCNc1nc(Nc2cccc(N3CCOCC3)c2)ncc1C1CC1)C1CCC1` [Example 41, Cyclobutanecarboxylic acid {3-[5-cyclopropyl-2-(3-morpholin-4-yl-phenylamino)-pyrimidin-4-ylamino]-propyl}-amide], the 50% inhibitory concentration (IC50) is under 100 nM.

On to `Cn1c(=O)n(C)c2cc(Nc3ncc(C4CC4)c(NCCCNC(=O)C4CCC4)n3)ccc21` [Example 179, Cyclobutanecarboxylic acid {3-[5-cyclopropyl-2-(1,3-dimethyl-2-oxo-2,3-dihydro-1H-benzimidazol-5-ylamino)-pyrimidin-4-ylamino]-propyl}-amide], for which the IC50 was under 100 nM.

The same assay, now with this note: Table 5; 50 μM ATP; read-out: TBK1 IC50.
Consider `CC(C)c1cnc(Nc2cccc(F)c2)nc1NCCCNC(=O)C1CCC1` [Compound B, cyclobutanecarboxylic acid {3-[2-(3-fluoro-phenylamino)-5-isopropyl-pyrimidin-4-ylamino]-propyl}-amide, reference compound], for which the IC50 is over 1000 nM.
